# Results published in paper PMC7385556 (ACS chemical biology, 2020).
# Values joined by “and” are separate entries in the source; they are usually repeats but may differ in a detail not shown here. Equal values may be shown once.
# Tested on: Mtb H37Rv mc^2 6230
# Experiment: MIC of compounds alone against Mtb H37Rv mc^2 6230
# Assay type: cell-based, Mycobacterium tuberculosis
# Conditions: compound alone, absence of KAN
structure (smiles),measurement,value
"NC[C@H]1O[C@H](O[C@H]2[C@H](O)[C@@H](O[C@H]3O[C@H](CO)[C@@H](O)[C@H](N)[C@H]3O)[C@H](N)C[C@@H]2N)[C@H](O)[C@@H](O)[C@@H]1O [KAN, kanamycin]",H37Rv mc^2 6230 MIC,<1 μg/mL and <1.72 μM
